Test results from US7728146B2, “Enzyme inhibitors” (Probiodrug AG, priority 2006, dated 2010).
Entries after “also recorded” stand apart in the source; their conditions may differ.

How the values were obtained:
DPII = DPII (Homo sapiens, UniProt Q9UHL4); experiment: DPII assay; assay type: biochemical; conditions: for Selectivity DPII(IC50)/DPIV(Ki): ratio IC50 DPII / Ki DP IV
Procedure: (§1) Determination of IC50 values for DPII and DP9 are done similarly as described for DP IV.
For DPII instead of the HEPES buffer a 0.2 M sodium acetate buffer pH 5.5 is used. As substrate Gly-Pro-AMC is used in a final concentration of 1 mM.

DP IV [1] = biological target: T1, DP IV (Homo sapiens, UniProt P27487); experiment: DP IV inhibition IC50, parallel-synthesis compounds tested directly following synthesis (without purification); assay type: biochemical; set-up: IC50 DP4; other: tested directly following parallel synthesis, without purification; compounds of formula (Ib) from parallel synthesis, tested directly following synthesis; conditions: DP IV inhibition; compounds of formula (Ib) from parallel synthesis, tested directly following synthesis (without purification); read-out: IC50
Method in brief: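 Porcine kidney or recombinant human enzyme (~40-50 μU/ml, HEPES buffer) hydrolysing Gly-Pro-pNA at room temperature, with 5% DMSO final; 11-point 1:2 dilutions from 100 μM final, in duplicate. pNA release read at 405 nm over ~18 min; slopes vs solvent control give residual activity, and IC50 comes from a 4-parameter fit.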

DP IV [2] = biological target: T1, DP IV; experiment: Ki and inhibition type, DP IV; assay type: biochemical; conditions: compounds obtained by preparative synthesis
Procedure: Measurement of DP IV activities for Ki determination is carried out as described for IC50. For Ki determination samples were analysed in triplicates. 7 serial dilutions of the inhibitor (range calculated from the IC50 determination) in water are analyzed with 4 serial dilutions of the substrate.
Data are analysed by non-linear regression to the inhibitor equations using Graphit software. Ki-value and inhibition type are determined using the inhibitor equation (competitive, partiell competitive, non-competitive) which gives the best fitting results. […]

DP9 = DP9 (Homo sapiens, UniProt Q86TI2); experiment: DP9 assay; assay type: biochemical; conditions: for IC50: Gly Pro-AMC 0.25 mM; for Selectivity DP9(IC50)/DPIV(Ki): ratio IC50 DP9 / Ki DP IV
Procedure: as §1
For DP9 Gly Pro-AMC is used as substrate in a final concentration of 0.25 mM.

[3] = biological target: dipeptidyl peptidase (DP IV) (UniProt P27487); experiment: Determination of IC50 against DP IV (hydrolysis of Gly-Pro-pNA); assay type: biochemical, porcine kidney or recombinant human; conditions: compounds obtained by preparative synthesis
Procedure: Determination of IC50 Against DP IV
Substances are screened for inhibition of dipeptidyl peptidase (DP IV) by their ability to inhibit the hydrolysis of the DP IV specific substrate Glycyl-Prolyl-4-Nitroanilide (Gly-Pro-pNA). All compounds are diluted in DMSO and IC50 will be determined with 11 serial dilutions (1:2) starting with an final concentration of 100 μM. The final DMSO concentration in the assay is 5% (v/v). The method was automated using a Tecan Genesis Freedom liquid handler and a Genius Pro (Tecan) microplate reader.
A stock solution of 0.102 M HEPES is prepared. Ionic strength (I=0.32) is adjusted by KCl and pH (pH 7.6) by KOH.
2.16 mM solution of Gly-Pro-pNA in deionized water is prepared.
All samples are dissolved in DMSO preparing a 10 mM stock solution.
DP IV from porcine kidney (pDP IV) or recombinant human DP IV (rhDP IV) is diluted in HEPES buffer to a final activity of approximately 40-50 μU*ml^−1. The DP IV is stored in a cooling rack (4° C.) on the liquid handler.
The assay may becarried out at room temperature using Freedom liquid handler connected with a Genios Pro microplate reader. Each sample is measured in duplicate. Each sample stock solution is prediluted with DMSO in a ratio of 1:5 in a polypropylen 96-well plate. From this predilution 10 serial (1:2) dilutions in DMSO are prepared. 13.5 μl of the 11 DMSO dilutions and DMSO alone are transferred to the measurement microplate (duplicates) and 86.5 μl water, 100 μl HEPES buffer and 50 μl substrate solution are added to each well. The enzymatic reaction is started by addition of 20 μl enzyme solution to each well, and then the microplate is immediately transferred to the microplate reader.
After short mixing (20 s) the release of 4-Nitroanilin (pNA) is monitored at 405 nm for 30 cycles (approx. 18 min).
Post assay calculations are done by the Magellan (Tecan) and Graphit Software. The linear slopes are calculated for each well and averaged for the duplicates. The residue activities are calculated in relation to a sample containing only solvent instead of inhibitor and expressed in %. Residue activities are plotted against the log of inhibitor concentrations and IC50 is calculated by an 4-parameter fitting ranging from 0 to 100%.

[4] = test system: liver cell carcinoma cell line Hep-G2; experiment: Cytotoxicity screening and LD50 determination on Hep-G2 (LDH, CytoTox-One); assay type: cell-based; conditions: for Cytotox 100 μM (%) HEPG2 / Viability 100 μM (%) HEP-G2: 24 h; for Cytotox 100 μM (%) HEPG2: LDH activity in cell culture media, lysed untreated cells = 100%; for Viability 100 μM (%) HEP-G2: LDH of lysed cells, untreated control = 100%; for Cytotox 100 μM (%) HEPG2 / Viability 100 μM (%) HEP-G2 / cytotoxic effects (summary in words) / Observed cytotox: 100 μM; for cytotoxic effects (summary in words): Hep-G2; for Observed cytotox: Hep-G2, observation of the cells
Procedure: Cytotoxicity of the compounds may be screened using the liver cell carcinoma cell line Hep-G2.
(§2) After 24 h of cultivation in a 96 well plate (50 000 cells/well) compounds (dissolved in DMSO) are added and cytotoxicity and vitality of the cells are analysed after another 24 h of cultivation using the CytoTox-One Homogenoeous membrane toxicity assay (Promega).
Three concentrations (100 μM, 2 μM, 40 nM) of each compound are analysed in triplicates. The final DMSO concentration was 1%.
(§3) For cytotoxicity the LDH activity in the cell culture media after 24 h of incubation are analysed. The untreated control is set to 0% cytotoxicity. For the 100% value LDH activity of lysed untreated cells are analysed.
(§4) For viability cell culture media are removed from the cells and all cells are lysed using the lysis buffer. LDH activity is determined and untreated control is set to 100% viability.
(§5) For determination of LD50 the liver carcinoma cell line HEP-G2 and the neuroblastoma cell line SY5Y may be used. The effect of 8 serial dilutions of the compounds (highest concentration 1 mM) is investigated as described above.
The cytotoxicity of certain example compounds (in each case prepared by preparative synthesis) was screened using Hep-G2 cells. Compounds were tested in concentrations of 100 μM, 2 μM and 40 nM.

[5] = test system: neuroblastoma cell line SY5Y; experiment: LD50 determination on SY5Y (LDH); assay type: cell-based; conditions: 8 serial dilutions, highest concentration 1 mM
Procedure: as §2, §3, §4, §5

[6] = sodium acetate buffer pH 5.5, Gly-Pro-AMC 1 mM
[7] = 8 serial dilutions, highest concentration 1 mM

DP9, sequence (Q86TI2 whole entry, species assumed): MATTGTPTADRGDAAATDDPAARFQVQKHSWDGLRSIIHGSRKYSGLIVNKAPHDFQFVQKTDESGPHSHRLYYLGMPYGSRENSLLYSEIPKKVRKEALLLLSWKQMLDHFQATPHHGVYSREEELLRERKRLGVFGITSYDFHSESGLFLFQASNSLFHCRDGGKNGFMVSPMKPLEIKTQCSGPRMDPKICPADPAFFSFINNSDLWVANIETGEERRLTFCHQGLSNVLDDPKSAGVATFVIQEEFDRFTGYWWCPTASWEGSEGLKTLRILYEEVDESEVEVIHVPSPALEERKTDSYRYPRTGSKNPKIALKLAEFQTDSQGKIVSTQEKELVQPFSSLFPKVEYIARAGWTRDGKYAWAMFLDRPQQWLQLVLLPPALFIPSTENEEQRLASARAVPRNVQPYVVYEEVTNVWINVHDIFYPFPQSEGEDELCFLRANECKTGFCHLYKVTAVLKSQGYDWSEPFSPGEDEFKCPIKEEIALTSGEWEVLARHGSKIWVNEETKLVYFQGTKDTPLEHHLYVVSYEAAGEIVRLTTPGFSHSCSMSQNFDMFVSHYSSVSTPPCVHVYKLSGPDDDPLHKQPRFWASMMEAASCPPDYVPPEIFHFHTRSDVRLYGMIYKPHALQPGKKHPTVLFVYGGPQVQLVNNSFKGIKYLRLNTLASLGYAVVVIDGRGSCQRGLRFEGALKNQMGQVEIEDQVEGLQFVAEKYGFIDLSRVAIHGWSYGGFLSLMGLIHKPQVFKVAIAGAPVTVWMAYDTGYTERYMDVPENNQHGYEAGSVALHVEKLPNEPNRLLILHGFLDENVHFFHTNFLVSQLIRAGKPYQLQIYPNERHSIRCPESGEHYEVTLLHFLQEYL
T1 sequence (P27487 whole entry): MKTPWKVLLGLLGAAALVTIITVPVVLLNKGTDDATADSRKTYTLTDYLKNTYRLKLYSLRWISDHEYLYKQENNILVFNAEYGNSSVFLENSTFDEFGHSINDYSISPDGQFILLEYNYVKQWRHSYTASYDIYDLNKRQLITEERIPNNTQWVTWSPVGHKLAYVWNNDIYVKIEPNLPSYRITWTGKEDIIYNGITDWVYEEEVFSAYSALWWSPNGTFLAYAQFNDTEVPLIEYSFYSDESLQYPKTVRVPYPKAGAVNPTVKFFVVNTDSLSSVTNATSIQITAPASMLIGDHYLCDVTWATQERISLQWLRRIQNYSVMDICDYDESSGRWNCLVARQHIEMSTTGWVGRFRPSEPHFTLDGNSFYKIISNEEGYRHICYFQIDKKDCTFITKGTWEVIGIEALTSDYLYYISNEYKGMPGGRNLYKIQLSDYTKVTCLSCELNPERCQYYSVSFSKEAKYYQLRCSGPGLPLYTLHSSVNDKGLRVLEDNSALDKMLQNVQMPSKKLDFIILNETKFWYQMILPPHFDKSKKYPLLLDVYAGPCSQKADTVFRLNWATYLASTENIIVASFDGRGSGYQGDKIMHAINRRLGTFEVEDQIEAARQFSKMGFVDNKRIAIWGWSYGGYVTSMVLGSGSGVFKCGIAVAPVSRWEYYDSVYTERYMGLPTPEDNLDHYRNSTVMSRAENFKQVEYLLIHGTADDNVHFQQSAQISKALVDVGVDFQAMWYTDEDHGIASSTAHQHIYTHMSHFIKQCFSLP

Compound | Selectivity DPII(IC50)/DPIV(Ki) (DPII) | IC50 (DPII; [6]) | IC50 (DP IV [1]) | Ki (DP IV [2]) | IC50 (DP9) | Selectivity DP9(IC50)/DPIV(Ki) (DP9) | IC50 [3] | Cytotox 100 μM (%) HEPG2 [4] | Viability 100 μM (%) HEP-G2 [4] | IC50 (DPII; values >1e−4 are extrapolated values) | cytotoxic effects (summary in words) [4] | Ki (DPII) | LD50 Viability SY5Y [5] | LD50 cytotox SY5Y [5] | LD50 Viability HEP-G2 [4, 7] | LD50 cytotox HEP-G2 [4, 7] | Ki (DP9) | Observed cytotox [4]
NCc1c(-c2ccc(Cl)cc2Cl)ncn1CCCCCO [Example 38b, 5-[5-aminomethyl-4-(2,4-dichloro-phenyl)-imidazol-1-yl]-pentan-1-ol] | 1,474 | 60600 nM | 1900 nM | 41.1 nM | 46500 nM | 1,131 | 848 nM | 0% | 106.7% |  |  |  |  |  |  |  |  | 
NCc1c(-c2ccc(Cl)cc2Cl)ncn1Cc1ccc2c(c1)OCO2 [Example 125b, C-[3-benzo[1,3]dioxol-5-ylmethyl-5-(2,4-dichloro-phenyl)-3H-imidazol-4-yl]-methylamine] | 471 | 17900 nM |  | 38 nM | 74700 nM | 1,966 | 371 nM | 10.6% | 88.9% |  |  |  |  |  |  |  |  | 
NCc1c(-c2ccc(Cl)cc2Cl)ncn1CCCn1ccnc1 [Example 104b, C-[5-(2,4-dichloro-phenyl)-3-(3-imidazol-1-yl-propyl)-3H-imidazol-4-yl]-methylamine] | 9,172 |  | 5500 nM | 30.2 nM | 17500 nM | 579 | 408 nM | 2.9% | 104.1% | 277000 nM |  |  |  |  |  |  |  | 
CC(C)(C)Cn1cnc(-c2ccc(Cl)cc2Cl)c1CN [Example 11b, C-[5-(2,4-dichloro-phenyl)-3-(2,2-dimethyl-propyl)-3H-imidazol-4-yl]-methylamine] | 1,457 | 83800 nM | 6400 nM | 57.5 nM |  |  | 2580 nM | 4.6% | 113.1% |  | No cytotoxic effects |  |  |  |  |  |  | 
NCc1c(-c2ccc(Cl)cc2Cl)ncn1Cc1ccccc1OC(F)(F)F [Example 129b, C-[5-(2,4-dichloro-phenyl)-3-(2-trifluoromethoxy-benzyl)-3H-imidazol-4-yl]-methylamine] | 237 | 1550 nM |  | 6.54 nM | 53200 nM | 8,135 | 70 nM |  |  |  |  | 4420 nM | 0.13 mM | 0.21 mM | 0.15 mM | 0.16 mM |  | 
NCc1c(-c2ccc(Cl)cc2Cl)ncn1CCc1ccccc1Cl [Example 21b, C-[3-[2-(2-chloro-phenyl)-ethyl]-5-(2,4-dichloro-phenyl)-3H-imidazol-4-yl]-methylamine] | 157 | 4620 nM | 1900 nM | 29.4 nM | 1280 nM | 44 | 514 nM | 97.1% | 9.8% |  |  | 3180 nM |  |  |  |  | 925 nM | 100% lysis
COc1ccc(Cn2cnc(-c3ccc(Cl)cc3Cl)c2CN)c(OC)c1 [Example 8b, C-[5-(2,4-Dichloro-phenyl)-3-(2,4-dimethoxy-benzyl)-3H-imidazol-4-yl]-methylamine] |  |  | 12700 nM |  |  |  |  |  |  |  | No cytotoxic effects |  |  |  |  |  |  | 
CC(C)CCn1cnc(-c2ccc(Cl)cc2Cl)c1CN [Example 7b, C-[5-(2,4-Dichloro-phenyl)-3-(3-methyl-butyl)-3H-imidazol-4-yl]-methylamine] |  |  | 8200 nM |  |  |  |  |  |  |  | Strong cytotoxic effects; also recorded: strongest cytotoxicity |  |  |  |  |  |  | 
CC(C)(C)CCn1cnc(-c2ccc(Cl)cc2Cl)c1CN [Example 23b, C-[5-(2,4-dichloro-phenyl)-3-(3,3-dimethyl-butyl)-3H-imidazol-4-yl]-methylamine] |  |  | 8200 nM | 23.6 nM | 56100 nM | 2,377 | 903 nM | 56.8% | 98.6% |  |  |  |  |  |  |  |  | 50% lysis, 100%
NCc1c(-c2ccc(Cl)cc2Cl)ncn1CCc1c[nH]c2ccccc12 [Example 1b, C-{5-(2,4-Dichloro-phenyl)-3-[2-(1H-indol-3-yl)-ethyl]-3H-imidazol-4-yl}-methylamine] |  |  | 3700 nM |  |  |  |  |  |  |  | Strong cytotoxic effects |  |  |  |  |  |  | 
